The target of this assay is T1, hTSHR (Homo sapiens, UniProt P16473).
T1 construct: expressed in transfected cells
In words: hTSHR TR-FRET cAMP Assay (inhibition of M22-stimulated cAMP production). Type of assay: cell-based. The following applies: Expi293F Inducible cells stably expressing hTSHR; cAMP HTRF; stimulated with EC80 of anti-TSHR antibody M22; 15 min compound preincubation, 30 min at 37° C.; read-out: Activity (IC50 bins). In short, it runs like this:
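Readout was a cAMP HTRF ratio of 655/620 nm after lysis, scaled between the EC80 M22 signal (0% inhibition) and no-agonist vehicle (100%). Frozen induced Expi293F-hTSHR cells saw test compounds (0.5% DMSO) for 15 min at 37 °C before 30 min of M22 stimulation at EC80.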
A general note: In TR-FRET formats the signal depends on donor and acceptor labels being close together.

T1 sequence (P16473 21-764): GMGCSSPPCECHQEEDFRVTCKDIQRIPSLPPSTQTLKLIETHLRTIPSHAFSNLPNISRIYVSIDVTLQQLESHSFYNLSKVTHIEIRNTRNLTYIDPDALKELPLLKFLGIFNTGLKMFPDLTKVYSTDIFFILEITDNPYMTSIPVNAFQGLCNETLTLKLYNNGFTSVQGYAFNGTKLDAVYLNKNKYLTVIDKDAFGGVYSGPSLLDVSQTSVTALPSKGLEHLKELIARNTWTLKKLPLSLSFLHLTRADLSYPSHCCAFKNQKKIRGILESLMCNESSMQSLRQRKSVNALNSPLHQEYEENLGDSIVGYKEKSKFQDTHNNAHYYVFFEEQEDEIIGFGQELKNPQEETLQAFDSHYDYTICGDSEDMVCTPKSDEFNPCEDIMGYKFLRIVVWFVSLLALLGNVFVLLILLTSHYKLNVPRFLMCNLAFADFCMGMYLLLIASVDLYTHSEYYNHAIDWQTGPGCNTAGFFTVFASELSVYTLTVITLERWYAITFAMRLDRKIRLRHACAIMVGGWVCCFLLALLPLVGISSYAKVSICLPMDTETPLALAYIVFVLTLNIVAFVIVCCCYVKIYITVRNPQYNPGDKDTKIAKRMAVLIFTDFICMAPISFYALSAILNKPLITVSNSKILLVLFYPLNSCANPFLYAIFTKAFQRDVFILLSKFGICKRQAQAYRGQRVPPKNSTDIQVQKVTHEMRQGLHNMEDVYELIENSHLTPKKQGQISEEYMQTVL

With `C[C@H]1Oc2cc(NC(=O)NC3(C)CCCC3)ccc2N(Cc2cccc(C(F)(F)F)n2)C1=O` [Example 227, (R)-1-(2-methyl-3-oxo-4-((6-(trifluoromethyl)pyridin-2-yl)methyl)-3,4-dihydro-2H-benzo[b][1,4]oxazin-7-yl)-3-(1-methylcyclopentyl) urea], the IC50 (commonly the concentration at which inhibition is half-maximal) is below 0.1 µM.
The figure for `Cc1cc2c(cc1NC(=O)NC(C)(C)C)ncc(=O)n2[C@@H](C)c1ccccc1` [Example 347, 3-tert-butyl-1-{7-methyl-2-oxo-1-[(1S)-1-phenylethyl]quinoxalin-6-yl}urea] is 0.1 to 1 µM; for `Cc1cccc(CN2C(=O)COc3cc(NC(=O)NC(C)(C)C)ccc32)c1` [Example 40, 1-(tert-butyl)-3-(4-(3-methylbenzyl)-3-oxo-3,4-dihydro-2H-benzo[b][1,4]oxazin-7-yl)urea] it is below 0.1 µM.
The figure for `C[C@H](c1cncc(C(F)(F)F)n1)N1C(=O)[C@@H](C)Oc2cc(NC(=O)NC(C)(C)C)ccc21` [Example 307, 1-(tert-butyl)-3-((R)-2-methyl-3-oxo-4-((R)-1-(6-(trifluoromethyl)pyrazin-2-yl)ethyl)-3,4-dihydro-2H-benzo[b][1,4]oxazin-7-yl)urea] is 0.1 to 1 µM.
`CC(C)(C)NC(=O)Nc1ccc2c(c1)CCC(=O)N2CC1CCCCC1` [Example 64, 1-(tert-butyl)-3-(1-(cyclohexylmethyl)-2-oxo-1,2,3,4-tetrahydroquinolin-6-yl)urea]: the IC50 was above 1 µM.
The figure for `CC1(C)CCN(C(=O)Nc2ccc3c(c2)ncc(=O)n3Cc2ccccc2)C1` [Example 194, N-(1-benzyl-2-oxo-1,2-dihydroquinoxalin-6-yl)-3,3-dimethylpyrrolidine-1-carboxamide] is above 1 µM; for `Cc1ccc(Cl)cc1[C@H](C)n1c(=O)cnc2cc(NC(=O)NC(C)(C)C)ccc21` [Example 141, (S)-1-(tert-butyl)-3-(1-(1-(5-chloro-2-methylphenyl)ethyl)-2-oxo-1,2-dihydroquinoxalin-6-yl)urea] it is 0.1 to 1 µM; for `CC(C)(C)NC(=O)Nc1ccc2c(c1)OCC(=O)N2Cc1cccc(C(F)F)c1` [Example 71, 1-(tert-butyl)-3-(4-(3-(difluoromethyl)benzyl)-3-oxo-3,4-dihydro-2H-benzo[b][1,4]oxazin-7-yl)urea] it is 0.1 to 1 µM.
The figure for `Cc1nc2cc(NC(=O)NC(C)(C)C)ccc2n([C@@H](C)c2cccc(Cl)c2)c1=O` [Example 180, (S)-1-(tert-butyl)-3-(1-(1-(3-chlorophenyl)ethyl)-3-methyl-2-oxo-1,2-dihydroquinoxalin-6-yl)urea] is 0.1 to 1 µM; for `C[C@H]1Oc2cc(NC(=O)NC(C)(C)C)c(F)cc2N(Cc2cccc(C(F)F)c2)C1=O` [Example 327, (R)-1-(tert-butyl)-3-(4-(3-(difluoromethyl)benzyl)-6-fluoro-2-methyl-3-oxo-3,4-dihydro-2H-benzo[b][1,4]oxazin-7-yl)urea] it is below 0.1 µM; for `C[C@H]1Oc2cc(NC(=O)NC(C)(C)C)ccc2N(Cc2cccc([C@@H](O)C(F)(F)F)c2)C1=O` [Example 174, 1-(tert-butyl)-3-((R)-2-methyl-3-oxo-4-(3-((R)-2,2,2-trifluoro-1-hydroxyethyl)benzyl)-3,4-dihydro-2H-benzo [b][1,4]oxazin-7-yl)urea] it is 0.1 to 1 µM.
The figure for `CC(C)(C)NC(=O)Nc1ccc2c(c1)OCC(=O)N2Cc1cccc([C@H](O)C(F)(F)F)c1` [Example 79, (S)-1-(tert-butyl)-3-(3-oxo-4-(3-(2,2,2-trifluoro-1-hy-droxyethyl)benzyl)-3,4-dihydro-2H-benzo[b][1,4]oxa-zin-7-yl)urea] is 0.1 to 1 µM; for `C[C@@H](c1cccc(Cl)c1)N1C(=O)N(C)Cc2cc(NC(=O)NC(C)(C)C)ccc21` [Example 46] it is below 0.1 µM; for `C[C@H]1Oc2cc(NC(=O)NC3(C(F)(F)F)CCC3)ccc2N([C@@H](C)c2ccccc2)C1=O` [Example 259, 1-((R)-2-methyl-3-oxo-4-((S)-1-phenylethyl)-3,4-dihydro-2H-benzo [b][1,4]oxazin-7-yl)-3-(1-(trifluoro-methyl)cyclo-butyl)urea] it is below 0.1 µM.
As for `C[C@H]1Oc2cc(NC(=O)NC3CCCC3)ccc2N(Cc2ccccc2)C1=O` [Example 237, (R)-1-(4-benzyl-2-methyl-3-oxo-3,4-dihydro-2H-benzo[b][1,4]oxazin-7-yl)-3-cyclopentylurea], the IC50 was below 0.1 µM.
On to `CC(C)(C)NC(=O)Nc1ccc2c(c1)ncc(=O)n2Cc1cccc(OC(F)(F)F)c1` [Example 91, 1-(tert-butyl)-3-(2-oxo-1-(3-(trifluoro-methoxy)benzyl)-1,2-di-hydro-quinoxalin-6-yl)urea], for which the IC50 was in the range of 0.1 to 1 µM.
For the compound `Cc1cc2c(cc1NC(=O)NC(C)(C)C)O[C@H](C)C(=O)N2Cc1ccccc1` [Example 332, (R)-1-(4-benzyl-2,6-dimethyl-3-oxo-3,4-dihydro-2H-benzo[b][1,4]oxazin-7-yl)-3-(tert-butyl)urea], the IC50 lay in the range of 0.1 to 1 µM.
The figure for `C[C@@H](c1cccc(C(C)(C)C)c1)n1c(=O)cnc2cc(NC(=O)NC(C)(C)C)ccc21` [Example 138, (S)-1-(tert-butyl)-3-(1-(1-(3-(tert-butyl)phenyl)ethyl)-2-oxo-1,2-dihydroquinoxalin-6-yl)urea] is 0.1 to 1 µM.
The figure for `C[C@@H](c1cc(Cl)ccc1Cl)n1c(=O)cnc2cc(NC(=O)NC(C)(C)C)ccc21` [Example 130, (S)-1-(tert-butyl)-3-(1-(1-(2,5-dichlorophenyl)ethyl)-2-oxo-1,2-dihydroquinoxalin-6-yl)urea] is 0.1 to 1 µM; for `C[C@H]1Oc2cc(NC(=O)NC(C)(C)C)ccc2N([C@@H](C)c2cc(F)ccc2F)C1=O` [Example 188, 1-(tert-butyl)-3-((R)-4-((S)-1-(2,5-difluorophenyl)ethyl)-2-methyl-3-oxo-3,4-dihydro-2H-benzo[b][1,4]oxazin-7-yl)urea] it is below 0.1 µM; for `CC(C)(C)NC(=O)Nc1ccc2c(c1)OCC(=O)N2Cc1cccc(OC(F)(F)F)c1` [Example 74, 1-(tert-butyl)-3-(3-oxo-4-(3-(tri-fluoromethoxy)ben-zyl)-3,4-dihydro-2H-benzo[b][1,4]oxa-zin-7-yl)urea] it is 0.1 to 1 µM.
The figure for `C[C@@H](c1cccc(C(F)(F)F)n1)n1c(=O)cnc2cc(NC(=O)CCC(C)(C)C)ccc21` [Example 300, (S)-4,4-dimethyl-N-(2-oxo-1-(1-(6-(trifluoromethyl)pyridin-2-yl)ethyl)-1,2-dihydroquinoxalin-6-yl)pentanamide] is 0.1 to 1 µM.
With `CC(C)(C)NC(=O)Nc1ccc2c(c1)ncc(=O)n2Cc1ccccc1` [Example 68, 1-(1-benzyl-2-oxo-1,2-dihydroquinoxalin-6-yl)-3-(tert-butyl)urea], the IC50 is below 0.1 µM.
The figure for `CC(c1cccc(C2CCC2)c1)n1c(=O)cnc2cc(NC(=O)NC(C)(C)C)ccc21` (stereo not drawn) [Example 246, 1-(tert-butyl)-3-(1-(1-(3-cyclobutylphenyl)ethyl)-2-oxo-1,2-dihydroquinoxalin-6-yl)urea] is 0.1 to 1 µM.
The figure for `Cc1cccc(CN2C(=O)[C@@H](C)Oc3cc(NC(=O)NC(C)(C)C)ccc32)c1` [Example 157, 3-tert-butyl-1-[(2R)-2-methyl-4-[(3-methylphenyl)methyl]-3-oxo-2H-1,4-benzoxazin-7-yl]urea] is below 0.1 µM; for `C[C@H]1Oc2nc(NC(=O)NC(C)(C)C)c(C#N)cc2N(Cc2ccccc2)C1=O` [Example 362, 1-[(3R)-1-benzyl-7-cyano-3-methyl-2-oxo-3H-pyrido[2,3-b][1,4]oxazin-6-yl]-3-tert-butylurea] it is 0.1 to 1 µM.
For `C[C@@H](c1cc(Cl)ccc1F)n1c(=O)cnc2cc(NC(=O)NC(C)(C)C)c(Cl)cc21` [Example 372, (S)-1-(tert-butyl)-3-(7-chloro-1-(1-(5-chloro-2-fluorophenyl)ethyl)-2-oxo-1,2-dihydroquinoxalin-6-yl)urea], the 50% inhibitory concentration (IC50) was below 0.1 µM.
The figure for `CC(C)(C)NC(=O)Nc1ccc2c(c1)CCC(=O)N2Cc1ccccc1C#N` [Example 20, 1-(tert-butyl)-3-(1-(2-cyanobenzyl)-2-oxo-1,2,3,4-tetrahydroquinolin-6-yl)urea] is below 0.1 µM.
Consider `C[C@H]1Oc2cc(NC(=O)NC3CCC(F)(F)CC3)ccc2N(Cc2cccc(C(F)(F)F)n2)C1=O` [Example 235, (R)-1-(4,4-difluorocyclohexyl)-3-(2-methyl-3-oxo-4-((6-(trifluoromethyl)pyridin-2-yl)methyl)-3,4-dihydro-2H-benzo[b][1,4]oxazin-7-yl)urea], for which the IC50 lay in the range of 0.1 to 1 µM.
The figure for `C[C@H]1Oc2cc(NC(=O)N[C@H]3C[C@H](C(F)(F)F)C3)ccc2N([C@@H](C)c2cccc(OC(F)(F)F)c2)C1=O` [Example 324, 1-((R)-2-methyl-3-oxo-4-((S)-1-(3-(trifluoromethoxy)phenyl)ethyl)-3,4-dihydro-2H-benzo[b][1,4]oxazin-7-yl)-3-((1r,3R)-3-(trifluoromethyl)cyclobutyl)urea] is 0.1 to 1 µM; for `CC(C)(C)NC(=O)Nc1ccc2c(c1)CCC(=O)N2Cc1ccccc1Cl` [Example 8, 1-(tert-butyl)-3-(1-(2-chlorobenzyl)-2-oxo-1,2,3,4-tetrahydroquinolin-6-yl)urea] it is 0.1 to 1 µM.
The figure for `Cn1ccc(CN2C(=O)CCc3cc(NC(=O)NC(C)(C)C)ccc32)n1` [Example 4, 1-(tert-butyl)-3-(1-((1-methyl-1H-pyrazol-3-yl)methyl)-2-oxo-1,2,3,4-tetrahydroquinolin-6-yl)urea] is above 1 µM; for `CC(C)(C)NC(=O)Nc1ccc2c(c1)CC(CO)C(=O)N2Cc1ccccc1` (stereo not drawn) [Example 51, 1-(1-benzyl-3-(hydroxymethyl)-2-oxo-1,2,3,4-tetrahydroquinolin-6-yl)-3-(tert-butyl)urea] it is above 1 µM.
